# US9422254B2, “Methoxyacrylate-based fungicide and methods for preparing and using the same” (priority 2008, dated 2016)
# “And” between values parts separate entries of the source, which are not always exact repeats. Identical values can stand only once.
# Key:
# [1] = test system: Cucumber mosaic virusstrain banana; test: In vitro inhibition, pathogens from tropical plants; format: cell-based
# Experimental: (§1) 5 wt % formulation of the active compound of Formula (I) was prepared into a solution (300 mg/L). To a sterilized Erlenmeyer flask, 2 mL of the solution and 18 mL of PDA culture medium (50° C.) were added. The mixture was shaken uniformly and dumped into two dishes whose diameter was 9 cm to yield two toxic PDA culture mediums having a concentration of 30 mg/L. Various cultured pathogens were punched at the edge of colony by a puncher having a diameter of 5 mm respectively, and the obtained pieces were transferred to the center of the toxic PDA culture medium by an inoculating needle and cultured in an incubator at 25° C. Repeat the above steps. According to the growth status of CK colony, the colony diameter of pathogens was measured by crossing method with a caliper and thereby a corrected inhibition percentage was calculated.
# (§2) For each colony, diameter was measured twice by crossing method and the average was practicable. The colony growth inhibition rate was calculated as follows: Colony growth inhibition rate %=(diameter of CK colony−diameter of target colony)×100/diameter of CK colony
# (§3) Following the above method, as targets 17 pathogens originated from tropical plants were tested. The pathogens were Rhizopus sp., Aspergillus, Colletotrichum gloeosporioides Penz, Banana Fusarium wilt, Colletouichum coccodes, Hughas, B. heveas, Cucumber mosaic virusstrain banana, Banana Sigatoka Leaf Spot Disease, Colletotrichum gloeosporioides, Colletotrichum musae (Berk & Curt) Arx, Botryodiplodia theobromae, Cladosporium cucumerinum Ellis et Arthur, Periconia hevenae, Colletotrichum gloeosporioides, B. cinerea, Diplodia natalensis, and Curvularia.
# Rhizopus sp. = test: as above; format: cell-based
# Experimental: as §1, §2, §3
# B. cinerea = test: as above; format: cell-based; conditions: Botrytis cinerea
# Experimental: as §1, §2, §3
# [2] = test system: Colletotrichum musae (Berk & Curt) Arx; test: as above; format: cell-based
# Experimental: as §1, §2, §3
# Banana Fusarium wilt = test: as above; format: cell-based
# Experimental: as §1, §2, §3
# Curvularia = test: as above; format: cell-based
# Experimental: as §1, §2, §3
# cucumber powdery mildew = test: Field efficacy trial of emulsifier concentrate 1, cucumber powdery mildew; format: in vivo
# Experimental: To a beaker (1000 mL), 50 g (100% basis) of the compound of Formula (I), 150 g of DMF, and 50 g of acetone were added and stirred for dissolution. To the solution, 25 g of pesticide emulsifier No. 500 and 50 g of Tween 80, 20 g of epoxidized soybean oil, and […] of toluene were added. Thus, the emulsifier concentrate 1 having 5 wt. % of the compound of Formula (I) was obtained and further packed.
# On the basis of indoor activity evaluation, field efficacy trials of the compound of Formula (I) on cucumber downy mildew, cucumber powdery mildew, and melon powdery mildew were conducted.
# Diaporthe medusae = test: microbe, parasite or virus in culture; format: cell-based
# [3] = biological target: T1, cytochrome bc1 complex of pig heart (Sus scrofa, UniProt P24964); test: Enzyme activity test, Complex III; format: biochemical
# T1 construct: The test target is cytochrome bc1 complex of pig heart; from tissue; host or cells: pig heart
# Experimental: Take NADH oxidase (NOX), succinate-cytochrome C oxidase (SCO), and Complex III as target enzymes, the inhibitory activity of the compound of Formula (I) was tested.
# ^b The test target is cytochrome bc1 complex of pig heart.
# Phytophthora infestans = test: microbe, parasite or virus in culture; format: cell-based; conditions: read-out: Inhibition rate (%)
# rabbit's eye = test: Eye stimulation test; format: in vivo
# Experimental: The toxicological indexes of the compound were tested following the standard GB15670-1995 “Toxicological test methods of pesticides for registration” by Tongji Medical College, Huazhong University of Science and Technology.
# [4] = 0.1 mg/L, read-out: Inhibition rate (%)
# [5] = 1 mg/L, read-out: Inhibition rate (%)
# [6] = 5 mg/L, read-out: Inhibition rate (%)
# [7] = 10 mg/L, read-out: Inhibition rate (%)
# [8] = 15 mg/L, read-out: Inhibition rate (%)
# [9] = 20 mg/L, read-out: Inhibition rate (%)
# T1 sequence (P24964 whole entry, one chain of several): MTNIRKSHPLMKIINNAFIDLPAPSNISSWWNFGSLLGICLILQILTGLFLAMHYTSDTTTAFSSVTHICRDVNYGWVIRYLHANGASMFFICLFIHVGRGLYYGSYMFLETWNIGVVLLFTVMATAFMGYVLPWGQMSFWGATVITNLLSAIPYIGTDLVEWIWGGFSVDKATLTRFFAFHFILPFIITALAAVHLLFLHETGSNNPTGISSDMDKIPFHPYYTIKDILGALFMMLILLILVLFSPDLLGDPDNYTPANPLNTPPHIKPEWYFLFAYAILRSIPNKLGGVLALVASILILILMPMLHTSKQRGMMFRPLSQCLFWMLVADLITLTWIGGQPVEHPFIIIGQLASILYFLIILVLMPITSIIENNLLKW
compound,measurement,setting,value
"CO/C=C(/C(=O)OC)c1ccccc1CSc1nc2cc(OC)ccc2s1 [Compound of Formula (I), (E)-methyl 3-methoxy-2-(2-((5-methoxy-benzothiazol-2-ylthio)methyl)phenyl)acrylate]",EC50,[1],1.92 µg/mL
same,inhibition at 0.1 µg/mL,[1]; [4],9.84%
same,inhibition at 1 µg/mL,[1]; [5],40.2%
same,inhibition at 5 µg/mL,[1]; [6],62.3%
same,inhibition at 10 µg/mL,[1]; [7],76.6%
same,inhibition at 15 µg/mL,[1]; [8],84.8%
same,EC50,Rhizopus sp.,4.18 µg/mL
same,inhibition at 1 µg/mL,Rhizopus sp.; [5],18.4%
same,inhibition at 5 µg/mL,Rhizopus sp.; [6],53.1%
same,inhibition at 10 µg/mL,Rhizopus sp.; [7],69.3%
same,inhibition at 15 µg/mL,Rhizopus sp.; [8],83.6%
same,inhibition at 20 µg/mL,Rhizopus sp.; [9],88.5%
same,EC50,B. cinerea,1 µg/mL
same,inhibition at 0.1 µg/mL,B. cinerea; [4],12.8%
same,inhibition at 0.5 µg/mL,"B. cinerea; 0.5 mg/L, read-out: Inhibition rate (%)",35.1%
same,inhibition at 1 µg/mL,B. cinerea; [5],54.5%
same,inhibition at 5 µg/mL,B. cinerea; [6],73.3%
same,inhibition at 10 µg/mL,B. cinerea; [7],88.1%
same,EC50,[2],1.66 µg/mL
same,inhibition at 0.1 µg/mL,[2]; [4],19.1%
same,inhibition at 1 µg/mL,[2]; [5],37.2%
same,inhibition at 5 µg/mL,[2]; [6],64.5%
same,inhibition at 10 µg/mL,[2]; [7],78.7%
same,inhibition at 20 µg/mL,[2]; [9],85.8%
same,EC50,Banana Fusarium wilt,9.22 µg/mL
same,inhibition at 1 µg/mL,Banana Fusarium wilt; [5],13.5%
same,inhibition at 5 µg/mL,Banana Fusarium wilt; [6],30.2%
same,inhibition at 10 µg/mL,Banana Fusarium wilt; [7],60.5%
same,inhibition at 25 µg/mL,"Banana Fusarium wilt; 25 mg/L, read-out: Inhibition rate (%)",67.6%
same,inhibition at 50 µg/mL,"Banana Fusarium wilt; 50 mg/L, read-out: Inhibition rate (%)",80.4%
same,EC50,Curvularia,0.505 µg/mL
same,inhibition at 0.1 µg/mL,Curvularia; [4],28.8%
same,inhibition at 1 µg/mL,Curvularia; [5],63.5%
same,inhibition at 5 µg/mL,Curvularia; [6],75.9%
same,inhibition at 10 µg/mL,Curvularia; [7],76.6%
same,inhibition at 15 µg/mL,Curvularia; [8],80.6%
same,Disease index (%),"cucumber powdery mildew; 12.5 mg/L, 7th day, Average",5.9%
same,Efficacy (%),"cucumber powdery mildew; 12.5 mg/L, 7th day, Average",70.50%
same,Disease index (%),"cucumber powdery mildew; 12.5 mg/L, 7th day, No. 1-4",5.5% and 6.7% and 5.8%
same,Efficacy (%),"cucumber powdery mildew; 12.5 mg/L, 7th day, No. 1-4",71.05% and 70.59% and 71.54% and 69.71%
same,Disease index (%),"cucumber powdery mildew; 12.5 mg/L, 14th day, Average",6.8%
same,Efficacy (%),"cucumber powdery mildew; 12.5 mg/L, 14th day, Average",75.66%
same,Disease index (%),"cucumber powdery mildew; 12.5 mg/L, 14th day, No. 1-4",6.4% and 6.3% and 7.8% and 6.6%
same,Efficacy (%),"cucumber powdery mildew; 12.5 mg/L, 14th day, No. 1-4",74.80% and 76.40% and 75.73% and 76.45%
same,Disease index (%),"cucumber powdery mildew; 12.5 mg/L, 21st day, Average",12.7%
same,Efficacy (%),"cucumber powdery mildew; 12.5 mg/L, 21st day, Average",68.91%
same,Disease index (%),"cucumber powdery mildew; 12.5 mg/L, 21st day, No. 1-4",12.6% and 12.0% and 13.9% and 12.3%
same,Efficacy (%),"cucumber powdery mildew; 12.5 mg/L, 21st day, No. 1-4",67.88% and 68.34% and 69.40% and 70.29%
same,Disease index (%),"cucumber powdery mildew; 25 mg/L, 7th day, Average",3.9%
same,Efficacy (%),"cucumber powdery mildew; 25 mg/L, 7th day, Average",77.54%
same,Disease index (%),"cucumber powdery mildew; 25 mg/L, 7th day, No. 1-4",3.6% and 4.2% and 4.6% and 3.3%
same,Efficacy (%),"cucumber powdery mildew; 25 mg/L, 7th day, No. 1-4",78.48% and 76.74% and 77.57% and 77.35%
same,Disease index (%),"cucumber powdery mildew; 25 mg/L, 14th day, Average",4.0%
same,Efficacy (%),"cucumber powdery mildew; 25 mg/L, 14th day, Average",83.51%
same,Disease index (%),"cucumber powdery mildew; 25 mg/L, 14th day, No. 1-4",3.5% and 4.2% and 4.8%
same,Efficacy (%),"cucumber powdery mildew; 25 mg/L, 14th day, No. 1-4",84.35% and 83.71% and 82.85% and 83.59%
same,Disease index (%),"cucumber powdery mildew; 25 mg/L, 21st day, Average",7.0%
same,Efficacy (%),"cucumber powdery mildew; 25 mg/L, 21st day, Average",77.78%
same,Disease index (%),"cucumber powdery mildew; 25 mg/L, 21st day, No. 1-4",6.8% and 8.0% and 6.2%
same,Disease index (%),"cucumber powdery mildew; 50 mg/L, 7th day, Average",2.4%
same,Efficacy (%),"cucumber powdery mildew; 50 mg/L, 7th day, Average",85.63%
same,Disease index (%),"cucumber powdery mildew; 50 mg/L, 7th day, No. 1-4",2.1% and 2.4% and 2.8% and 2.2%
same,Efficacy (%),"cucumber powdery mildew; 50 mg/L, 7th day, No. 1-4",85.88% and 84.49% and 86.18% and 85.31%
same,Disease index (%),"cucumber powdery mildew; 50 mg/L, 14th day, Average",2.1%
same,Efficacy (%),"cucumber powdery mildew; 50 mg/L, 14th day, Average",90.99%
same,Disease index (%),"cucumber powdery mildew; 50 mg/L, 14th day, No. 1-4",2.1% and 1.8% and 2.7% and 1.9%
same,Efficacy (%),"cucumber powdery mildew; 50 mg/L, 14th day, No. 1-4",89.44% and 91.85% and 90.23% and 91.34%
same,Disease index (%),"cucumber powdery mildew; 50 mg/L, 21st day, Average",3.6%
same,Efficacy (%),"cucumber powdery mildew; 50 mg/L, 21st day, Average",89.45%
same,Disease index (%),"cucumber powdery mildew; 50 mg/L, 21st day, No. 1-4",3.2% and 3.0% and 4.4% and 3.7%
same,Efficacy (%),"cucumber powdery mildew; 50 mg/L, 21st day, No. 1-4",89.57% and 90.44% and 88.74% and 88.58%
same,Disease index (%),"cucumber powdery mildew; 100 mg/L, 7th day, Average",1.5%
same,Efficacy (%),"cucumber powdery mildew; 100 mg/L, 7th day, Average",91.67%
same,Disease index (%),"cucumber powdery mildew; 100 mg/L, 7th day, No. 1-4",1.7% and 1.2% and 1.9%
same,Efficacy (%),"cucumber powdery mildew; 100 mg/L, 7th day, No. 1-4",91.17% and 92.74% and 90.16% and 92.41%
same,Disease index (%),"cucumber powdery mildew; 100 mg/L, 14th day, Average",1.2%
same,Efficacy (%),"cucumber powdery mildew; 100 mg/L, 14th day, Average",95.23%
same,Disease index (%),"cucumber powdery mildew; 100 mg/L, 14th day, No. 1-4",0.9% and 1.3% and 1.4% and 1.0%
same,Efficacy (%),"cucumber powdery mildew; 100 mg/L, 14th day, No. 1-4",96.46% and 94.43% and 95.18% and 95.68%
same,Disease index (%),"cucumber powdery mildew; 100 mg/L, 21st day, Average",2.9%
same,Efficacy (%),"cucumber powdery mildew; 100 mg/L, 21st day, Average",91.52%
same,Disease index (%),"cucumber powdery mildew; 100 mg/L, 21st day, No. 1-4",3.3% and 2.6% and 2.8% and 3.0%
same,Efficacy (%),"cucumber powdery mildew; 100 mg/L, 21st day, No. 1-4",91.58% and 92.15% and 93.17% and 91.23%
same,in vitro effect,Diaporthe medusae,particularly effective
same,inhibition at 0.3 µg/mL,"Diaporthe medusae; Diaporthe, 0.3 mg/L, read-out: Inhibition rate (%)",55.3%
same,inhibition at 3 µg/mL,"Diaporthe medusae; Diaporthe, 3 mg/L, read-out: Inhibition rate (%)",80.1%
same,inhibition at 30 µg/mL,"Diaporthe medusae; Diaporthe, 30 mg/L, read-out: Inhibition rate (%)",87.2%
same,IC50,[3],4 nM
same,inhibitory activity on Complex III compared with azoxystrobin,[3]; azoxystrobin as control agent,much higher inhibitory activity
same,inhibition at 0.3 µg/mL,Phytophthora infestans,15.3%
same,inhibition at 3 µg/mL,Phytophthora infestans,33.7%
same,inhibition at 30 µg/mL,Phytophthora infestans,38%
same,Eye stimulation,rabbit's eye,Mild stimulation on rabbit's eye
